The test deals with ACE2 (Homo sapiens, UniProt Q9BYF1). Briefly: affinity ultrafiltration-HPLC/MS from crude extract against heat-inactivated control; identity by standard. It is filed as binding.
Chain of ACE2 (Q9BYF1 18-805): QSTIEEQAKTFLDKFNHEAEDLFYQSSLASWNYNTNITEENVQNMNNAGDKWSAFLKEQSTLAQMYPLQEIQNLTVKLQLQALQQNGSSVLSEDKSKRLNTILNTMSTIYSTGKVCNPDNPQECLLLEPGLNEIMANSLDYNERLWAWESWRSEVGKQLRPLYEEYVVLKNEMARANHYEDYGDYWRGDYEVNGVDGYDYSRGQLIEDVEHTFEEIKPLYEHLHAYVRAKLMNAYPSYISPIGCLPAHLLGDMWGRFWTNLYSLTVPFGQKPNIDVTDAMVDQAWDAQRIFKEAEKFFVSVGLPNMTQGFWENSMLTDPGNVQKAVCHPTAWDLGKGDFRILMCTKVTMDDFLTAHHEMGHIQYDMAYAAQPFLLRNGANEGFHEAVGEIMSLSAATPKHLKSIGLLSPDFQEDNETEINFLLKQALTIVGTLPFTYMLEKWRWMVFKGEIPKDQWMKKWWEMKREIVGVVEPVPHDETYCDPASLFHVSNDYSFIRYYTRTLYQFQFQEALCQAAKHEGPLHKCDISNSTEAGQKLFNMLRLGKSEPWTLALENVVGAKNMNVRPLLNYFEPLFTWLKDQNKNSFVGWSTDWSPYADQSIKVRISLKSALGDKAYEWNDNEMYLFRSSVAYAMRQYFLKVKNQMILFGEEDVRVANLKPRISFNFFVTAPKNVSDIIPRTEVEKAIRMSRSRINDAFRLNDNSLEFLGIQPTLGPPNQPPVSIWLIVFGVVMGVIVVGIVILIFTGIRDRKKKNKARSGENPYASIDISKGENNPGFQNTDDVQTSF

On to `COc1cc2c(O)c3c(c(-c4ccc5c(c4)OCO5)c2cc1OC)C(=O)OC3` [Peak 10, Diphyllin], for which the “EFs ^b (%) / ACE2” value is listed as 3.68 % (enrichment factor). As to `O=c1c(O)c(-c2ccc(O)cc2)oc2cc(O)cc(O)c12` [Peak 7, Kaempferol], the “EFs ^b (%) / ACE2” value is recorded as 3.10 % (enrichment factor).

The record behind these values is article PMC8573357, “Exploring Multifunctional Bioactive Components from Podophyllum sinense Using Multi-Target Ultrafiltration” (Frontiers in Pharmacology, 2021).
